We go through 36 molecules from patent US11186572B2, “Bacterial glutaminyl cyclases and inhibitors thereof for use in the treatment of periodontitis” (Fraunhofer-Gesellschaft zur Forderung der Angewandten …, priority 2016, dated 2021).

The target in this experiment is T1, PgQC (Porphyromonas gingivalis, UniProt Q7MT37).
T1 construct: Ki; RA (average residual QC activity of PgQC); other: c = 1 μM; other: c = 1.5 μM; other: c = 10 μM; other: c = 100 μM; other: c = 12 μM; RA; fused on or other part: N-terminal His tag from pET28a(+), cleaved off by thrombin before the enzymatic characterisation
The experiment in a line: biochemical. Set-up: species or system P. gingivalis. Particulars: for Ki: inhibition of PgQC, H-Gln-AMC, 50 mM Tris-HCl, 50 mM NaCl pH 8.0, 30° C. As for the experimental part: The assay consists of varying concentration of the fluorogenic substrate and 0.5 U pyroglutaminyl aminopeptidase in 50 mM Tris-HCl, 50 mM NaCl at pH 8.0. After 10 minute incubation time at 30° C. reaction was initiated by addition of bacQC to a final volume of 125 μl reaction mixture. […] All determinations were carried out in 96 well microtiter plates (Fisher Scientific) at 30° C. using the FluoStar Optima (BMG Labtech).
For inhibitor testing, the sample composition was the same as described above, except for the addition of the putative inhibitory compound. […] (∘) represents reaction without inhibitor. Determinations were carried out in 50 mM Tris-HCl, 50 mM NaCl pH 8.0 and 1% (v/v) DMSO at 30° C.
RA refers to the average residual QC activity of PgQC measured in the presence of a concentration c of the respective compound. Ki refers to the average Ki values measured as described above, and Std(Ki) refers to the standard deviation of Ki.

Where [1] appears, read: read-out: RA (average residual QC activity of PgQC).

Molecules are shown by their SMILES. Read-outs that look alike come from different tables or passages of the source.

As for `COC(=O)/C=C/CN1CCc2[nH]cnc2C1` [MWT-S-00138, Methyl (E)-4-(3,4,6,7-tetrahydroimidazo[4,5-c]pyridin-5-yl)but-2-enoate], under “Ki (average)”, the affinity corresponds to a Ki of 3000 nM. Also, under setting [1], the remaining activity at 20 µM stood at 21%.

For `c1ccc(CN2CCc3[nH]cnc3C2)cc1` [MWT-S-00139, 5-Benzyl-3,4,6,7-tetrahydroimidazo[4,5-c]pyridine], the Ki (read-out: Ki (average)) was found to be 909 nM. Further, under setting [1], the remaining activity at 8 µM was 18%.

For the molecule `c1ccc(CCN2CCc3[nH]cnc3C2)cc1` [MWT-S-00145, 5-(2-Phenylethyl)-3,4,6,7-tetrahydroimidazo[4,5-c]pyridine], the Ki (read-out: Ki (average)) came out at 6470 nM. Also, the remaining activity at 40 µM under setting [1] was determined as 21%.

Regarding `O=C(/C=C/c1ccccc1)N1CCc2[nH]cnc2C1` [MWT-S-00146, (E)-3-Phenyl-1-(3,4,6,7-tetrahydroimidazo[4,5-c]pyridin-5-yl)prop-2-en-1-one], for the setting “read-out: Ki (average)”, the Ki turned out to be 1580 nM. Further, the remaining activity at 15 µM under setting [1] was 18%.

Consider `O=C(CCc1ccccc1)N1CCc2[nH]cnc2C1` [MWT-S-00147, 3-Phenyl-1-(3,4,6,7-tetrahydroimidazo[4,5-c]pyridin-5-yl)propan-1-one], for which the Ki (read-out: Ki (average)) worked out at 1750 nM. The remaining activity at 12 µM under setting [1] was found to be 22%.

For `O=C(Cc1ccccc1)N1CCc2[nH]cnc2C1` [MWT-S-00148, 2-Phenyl-1-(3,4,6,7-tetrahydroimidazo[4,5-c]pyridin-5-yl)ethanone], where the note is “read-out: Ki (average)”, the inhibition constant Ki is 1680 nM. For the same molecule, under setting [1], the remaining activity at 8 µM was determined as 29%.

As for `O=C(c1ccccc1)N1CCc2[nH]cnc2C1` [MWT-S-00149, Phenyl(3,4,6,7-tetrahydroimidazo[4,5-c]pyridin-5-yl)methanone], the Ki (read-out: Ki (average)) came out at 435 nM. Also, under setting [1], the remaining activity at 4 µM came out at 20%.

With `O=C(c1ccc(F)cc1)N1CCc2[nH]cnc2C1` [MWT-S-00156, (4-Fluorophenyl)-(3,4,6,7-tetrahydroimidazo[4,5-c]pyridin-5-yl)methanone], under “read-out: Ki (average)”, the Ki was 879 nM. In addition, the remaining activity at 5 µM under setting [1] was 24%.

As for `COc1ccc(C(=O)N2CCc3[nH]cnc3C2)cc1` [MWT-S-00157, (4-Methoxyphenyl)-(3,4,6,7-tetrahydroimidazo[4,5-c]pyridin-5-yl)methanone], the Ki (read-out: Ki (average)) came to 833 nM. Besides, the remaining activity at 5 µM under setting [1] turned out to be 24%.

For the molecule `COc1cccc(C(=O)N2CCc3[nH]cnc3C2)c1` [MWT-S-00158, (3-Methoxyphenyl)-(3,4,6,7-tetrahydroimidazo[4,5-c]pyridin-5-yl)methanone], under “read-out: Ki (average)”, the Ki was 335 nM. Also, the remaining activity at 2 µM under setting [1] was 21%.

Consider `O=C(c1ccc(Cl)c(Cl)c1)N1CCc2[nH]cnc2C1` [MWT-S-00159, (3,4-Dichlorophenyl)-(3,4,6,7-tetrahydroimidazo[4,5-c]pyridin-5-yl)methanone], for which the Ki (read-out: Ki (average)) came to 257 nM. Besides, the remaining activity at 2 µM under setting [1] was found to be 18%.

For the molecule `O=C(c1ccc(Cl)cc1)N1CCc2[nH]cnc2C1` [MWT-S-00160, (4-Chlorophenyl)-(3,4,6,7-tetrahydroimidazo[4,5-c]pyridin-5-yl)methanone], the Ki (read-out: Ki (average)) came out at 681 nM. Also, under setting [1], the remaining activity at 5 µM turned out to be 20%.

As for `c1ccc(CN2CCc3[nH]cnc3C23COC3)cc1` [MWT-S-00260, 5-Benzylspiro[6,7-dihydro-3H-imidazo[4,5-c]pyridine-4,3′-oxetane]], for the setting “read-out: Ki (average)”, the Ki stood at 1760 nM. Besides, the remaining activity at 10 µM under setting [1] is 22%.

For `Fc1cc(CN2CCc3[nH]cnc3C2c2ccccc2)cc(F)c1F` (stereo not shown) [MWT-S-00261, 4-Phenyl-5-[(3,4,5-trifluorophenyl)methyl]-3,4,6,7-tetrahydroimidazo[4,5-c]pyridine], the remaining activity at 20 µM under setting [1] stood at 93%.

As for `c1ccc(C2NCCc3[nH]cnc32)cc1` (stereo not shown) [MWT-S-00264], the remaining activity at 100 µM under setting [1] was found to be 92%.

`CC1c2nc[nH]c2CCN1Cc1ccccc1` (stereo not shown) [MWT-S-00265, 5-Benzyl-4-methyl-3,4,6,7-tetrahydroimidazo[4,5-c]pyridine]: the Ki (read-out: Ki (average)) was determined as 3080 nM. The remaining activity at 20 µM under setting [1] was 21%.

In the case of `Fc1cc(CN2CCc3[nH]cnc3C23COC3)cc(F)c1F` [MWT-S-00266, 5-[(3,4,5-Trifluorophenyl)methyl]spiro[6,7-dihydro-3H-imidazo[4,5-c]pyridine-4,3′-oxetane]], the affinity (Ki (average)), expressed as Ki, was 556 nM. The remaining activity at 4 µM under setting [1] stood at 19%.

Where the note is “Ki (average)”, `CC1c2nc[nH]c2CCN1Cc1cc(F)c(F)c(F)c1` (stereo not shown) [MWT-S-00267, 4-Methyl-5-[(3,4,5-trifluorophenyl)methyl]-3,4,6,7-tetrahydro-imidazo[4,5-c]pyridine] returned a Ki of 528 nM. The remaining activity at 4 µM under setting [1] turned out to be 20%.

As for `c1ccc(CN2CCc3[nH]cnc3C2c2ccccc2)cc1` (stereo not shown) [MWT-S-00268, 5-Benzyl-4-phenyl-3,4,6,7-tetrahydroimidazo[4,5-c]pyridine], the remaining activity at 16 µM under setting [1] is 93%.

Take `CC1c2nc[nH]c2CCN1C(=O)c1ccccc1` (stereo not shown) [MWT-S-00327]: the remaining activity at 100 µM under setting [1] was found to be 18%.

Consider `c1nc2c([nH]1)CCN(Cc1ccc(OCCN3CCOCC3)cc1)C2` [MWT-S-00330, 4-[2-[4-(1,4,6,7-Tetrahydroimidazo[4,5-c]pyridin-5-ylmethyl)phenoxy]ethyl]morpholine], for which affinity (Ki (average)) was put at a Ki of 940 nM. Moreover, under setting [1], the remaining activity at 8 µM was 22%.

`CCCCOc1ccc(CN2CCc3[nH]cnc3C2)cc1` [MWT-S-00331, 5-[(4-Butoxyphenyl)methyl]-1,4,6,7-tetrahydroimidazo[4,5-c]pyridine]: the Ki (Ki (average)) amounted to 254 nM. The remaining activity at 1.5 µM under setting [1] is 26%.

Consider `COc1cccc(CN2CCc3[nH]cnc3C2)c1` [MWT-S-00343, 5-[(3-Methoxyphenyl)methyl]-1,4,6,7-tetrahydroimidazo[4,5-c]pyridine], for which the remaining activity at 1 µM under setting [1] was found to be 65%.

With `FC1(F)Oc2ccc(CN3CCc4[nH]cnc4C3)cc2O1` [MWT-S-00344, 5-[(2,2-Difluoro-1,3-benzodioxol-5-yl)methyl]-1,4,6,7-tetrahydro-imidazo[4,5-c]pyridine], under setting [1], the remaining activity at 1 µM was 56%.

With `c1ccc(COc2ccc(CN3CCc4[nH]cnc4C3)cc2)cc1` [MWT-S-00359, 5-[(4-Benzyloxyphenyl)methyl]-1,4,6,7-tetrahydroimidazo[4,5-c]pyridine], the inhibition constant (Ki) (Ki (average)) is 192 nM. For the same molecule, the remaining activity at 1 µM under setting [1] was determined as 31%.

As to `c1cc(CN2CCc3[nH]cnc3C2)cc(N2CCCC2)c1` [MWT-S-00361, 5-[(3-Pyrrolidin-1-ylphenyl)methyl]-1,4,6,7-tetrahydroimidazo[4,5-c]pyridine], the remaining activity at 1 µM under setting [1] amounted to 80%.

Under “Ki (average)”, `c1nc2c([nH]1)CCN(Cc1ccc3c(c1)OCCO3)C2` [MWT-S-00380, 5-(2,3-Dihydro-1,4-benzodioxin-6-ylmethyl)-1,4,6,7-tetrahydro-imidazo[4,5-c]pyridine] registered a Ki of 311 nM. Also, the remaining activity at 1 µM under setting [1] was 39%.

Under “Ki (average)”, `Cc1ccc(CN2CCc3[nH]cnc3C2)cc1` [MWT-S-00420, 5-(p-Tolylmethyl)-1,4,6,7-tetrahydroimidazo[4,5-c]pyridine] returned a Ki of 806 nM. Under setting [1], the remaining activity at 10 µM was 16%.

Regarding `Clc1ccc(CN2CCc3[nH]cnc3C2)cc1` [MWT-S-00421, 5-[(4-Chlorophenyl)methyl]-1,4,6,7-tetrahydroimidazo[4,5-c]pyridine], the Ki (Ki (average)) is 540 nM. The remaining activity at 10 µM under setting [1] turned out to be 11%.

Regarding `Clc1ccc(CN2CCc3[nH]cnc3C2)cc1Cl` [MWT-S-00423, 5-[(3,4-Dichlorophenyl)methyl]-1,4,6,7-tetrahydroimidazo[4,5-c]pyridine], affinity (Ki (average)) was put at a Ki of 367 nM. Besides, under setting [1], the remaining activity at 10 µM was 8%.

Turning to `O=C(c1cccc(Cl)c1)N1CCc2[nH]cnc2C1` [MWT-S-00425, (3-Chlorophenyl)(1,4,6,7-tetrahydro-5H-imidazo[4,5-c]pyridin-5-yl)methanone], the Ki (read-out: Ki (average)) came to 174 nM. Besides, under setting [1], the remaining activity at 10 µM worked out at 5%.

Take `COc1ccc(C(=O)N2CCc3[nH]cnc3C2)cc1OC` [MWT-S-00426, (3,4-Dimethoxyphenyl)(1,4,6,7-tetrahydro-5H-imidazo[4,5-c]pyridin-5-yl)methanone]: the inhibition constant Ki (read-out: Ki (average)) is 1460 nM. Also, the remaining activity at 10 µM under setting [1] is 26%.

In the case of `O=C(c1ccc2c(c1)OCO2)N1CCc2[nH]cnc2C1` [MWT-S-00427, Benzo[d][1,3]dioxol-5-yl(1,4,6,7-tetrahydro-5H-imidazo[4,5-c]pyridin-5-yl)methanone], the Ki (read-out: Ki (average)) is 560 nM. The remaining activity at 10 µM under setting [1] amounted to 13%.

Turning to `O=C(c1ccc(-c2ccccc2)cc1)N1CCc2[nH]cnc2C1` [MWT-S-00428, [1,1′-Biphenyl]-4-yl(1,4,6,7-tetrahydro-5H-imidazo[4,5-c]pyridin-5-yl)methanone], the Ki (read-out: Ki (average)) was determined as 1900 nM. The remaining activity at 1 µM under setting [1] was found to be 83%.

As to `COc1cc(OC)cc(C(=O)N2CCc3[nH]cnc3C2)c1` [MWT-S-00429, (3,5-Dimethoxyphenyl)(1,4,6,7-tetrahydro-5H-imidazo[4,5-c]pyridin-5-yl)methanone], the Ki (read-out: Ki (average)) was found to be 928 nM. For the same molecule, under setting [1], the remaining activity at 10 µM came to 16%.

Turning to `O=C(c1cccc(F)c1)N1CCc2[nH]cnc2C1` [MWT-S-00430, (3-Fluorophenyl)(1,4,6,7-tetrahydro-5H-imidazo[4,5-c]pyridin-5-yl)methanone], under setting [1], the remaining activity at 1 µM came out at 40%.
